Reference: patent publication US12594339B2, “Lipid prodrugs of JAK inhibitors and uses thereof” (Seaport Therapeutics, Inc., priority 2019, dated 2026)

Assay: Lymphatic transport assay in mesenteric lymph-duct cannulated rats
Type: in vivo, rat
Conditions: intraduodenal infusion, anaesthetised mesenteric lymph-duct cannulated rats
Description: In order to assess the lymphatic transport of disclosed lipid prodrugs in rats, the mesenteric lymph ducts of the rats used in this study were cannulated to allow continual collection of mesenteric lymph. Lipid formulations containing the compound of interest were then administered to the animals, lymph was collected, and drug concentrations in the lymph samples were quantified.
Lipid-based formulations of the compounds of the invention or control compounds were prepared as previously described (Trevaskis, N. L. et al., Pharmaceutical Research, 2005, 22(11), 1863-1870, WO 2016/023082, and WO 2017/041139, hereby incorporated by reference).
In brief, either 1 or 2 mg of test prodrug, 40 mg oleic acid and 25 mg Tween 80 were mixed in a glass vial and incubated at 37° C. for 12-18 h to equilibrate. An aqueous phase consisting of 5.6 ml phosphate buffered saline (PBS, pH 7.4) was subsequently added to the lipid phase (tofacitinib was dissolved in PBS for the preparation of tofacitinib-containing formulations) and the formulation emulsified by ultrasonication with a Misonix XL 2020 ultrasonic processor (Misonix, Farmingdale, NY, USA) equipped with a 3.2-mm microprobe tip running at 30% of the maximal amplitude of 240 μm and a frequency of 20 kHz for 2 min at room temperature. Doses for administering to more than one animal can be prepared in one batch by suitably increasing the quantities given above. Drug/prodrug concentrations in all formulations were verified using HPLC-MS.
Male Sprague-Dawley (SD) rats were selected for the lymphatic transport studies. Rats (typically 240-320 g) were maintained on a standard diet and fasted overnight with free access to water prior to experiments.
Anesthetized rats were placed on a heated pad at 37° C. and cannulas inserted into the duodenum (for formulation administration and rehydration), mesenteric lymph duct (for lymph collection), and carotid artery (in cases where blood collection was conducted). Post-surgery, rats were re-hydrated for 0.5 h via intraduodenal infusion of normal saline at 2.8 mL/h. The lipid formulations were infused into the duodenum at 2.8 mL/h for 2 h after which, normal saline was infused at 2.8 mL/h for the remainder of the experiment. Lymph was continuously collected for up to 8 h into pre-weighed Eppendorf tubes containing 10 μL of 1,000 IU/mL heparin. The collection tubes were changed hourly and lymph flow was measured gravimetrically. Aliquots of hourly lymph samples were stored at −20° C. prior to assay.
For most compounds, drug concentration in lymph is expressed as total drug and includes free drug and drug associated with different glycerides. Lymph samples were first treated with a lipase or other appropriate conditions to liberate free active agent prior to measurement of active agent levels in the lymph. Treatment with a lipase or other hydrolysis conditions liberates free active agent from any corresponding re-esterified glycerides. Porcine pancreatic lipase is appropriate for this purpose. Alternatively, hydrolysis with 0.5 M NaOH may be used.
For certain compounds, drug concentration was measured for the intact lipid prodrug specifically, without exposing the lymph samples to hydrolysis conditions.
Transport of compounds into lymph during each hourly collection period was calculated from the product of the volume of lymph collected and the measured concentrations in lymph. For fluorescent or fluorescently-labelled compounds, the concentrations of total compound may be measured by fluorescence spectroscopy without hydrolysis.
Table 5 summarizes lymphatic transport of total tofacitinib related compound (% of administered dose) following intraduodenal infusion to anaesthetised, mesenteric lymph-duct cannulated rats. Data are presented as mean±SD when n≥3 or mean± range when n=2. […]

[1] = total tofacitinib related compound (lymph hydrolysed before assay), lymph collected up to 8 h

Structure (SMILES)	Cumulative lymphatic transport % dose [1]	Cumulative lymphatic transport % dose (marked with asterisk: analytical procedure without a hydrolysis step (intact lipid prodrug))
CCCCCCCCCCCCCCCC(=O)OCC(COC(=O)CCCCCCCCCCCCCCC)OC(=O)CC(C)CCCCCC(=O)n1ccc2c(N(C)[C@H]3CN(C(=O)CC#N)CC[C@H]3C)ncnc21 (stereo partly shown) [I-7]	B (lymphatic transport assay result between 1% and 10% (1%-10%))	
CCCCCCCCCCCCCCCC(=O)OCC(COC(=O)CCCCCCCCCCCCCCC)OC(=O)CC(C)CCCCCCC(=O)n1ccc2c(N(C)[C@H]3CN(C(=O)CC#N)CC[C@H]3C)ncnc21 (stereo partly drawn) [I-9, 2-((10-(4-(((3R,4R)-1-(2-cyanoacetyl)-4-methylpiperidin-3-yl)(methyl)amino)-7H-pyrrolo[2,3-d]pyrimidin-7-yl)-3-methyl-10-oxodecanoyl)oxy)propane-1,3-diyl dipalmitate]		B* (lymphatic transport assay result between 1% and 10% (1%-10%))
CCCCCCCCCCCCCCCC(=O)OCC(COC(=O)CCCCCCCCCCCCCCC)OC(=O)CC(C)CCCCCCCCCCCC(=O)n1ccc2c(N(C)[C@H]3CN(C(=O)CC#N)CC[C@H]3C)ncnc21 (stereo partly drawn) [I-10, 2-((15-(4-(((3R,4R)-1-(2-cyanoacetyl)-4-methylpiperidin-3-yl)(methyl)amino)-7H-pyrrolo[2,3-d]pyrimidin-7-yl)-3-methyl-15-oxopentadecanoyl)oxy)propane-1,3-diyl dipalmitate]	B (lymphatic transport assay result between 1% and 10% (1%-10%))	
CCCCCCCCCCCCCCCC(=O)OCC(COC(=O)CCCCCCCCCCCCCCC)OC(=O)CC(C)CCCCCCC(C)CC(=O)n1ccc2c(N(C)[C@H]3CN(C(=O)CC#N)CC[C@H]3C)ncnc21 (stereo partly drawn) [I-13, 2-((12-(4-(((3R,4R)-1-(2-cyanoacetyl)-4-methylpiperidin-3-yl)(methyl)amino)-7H-pyrrolo[2,3-d]pyrimidin-7-yl)-3,10-dimethyl-12-oxododecanoyl)oxy)propane-1,3-diyl dipalmitate]	A (lymphatic transport assay result of greater than 10% (>10%))	
CCCCCCCCCCCCCCCC(=O)OCC(COC(=O)CCCCCCCCCCCCCCC)OC(=O)CC(C)CCCCCCC(=O)Oc1c(C)cc(COC(=O)n2ccc3c(N(C)[C@H]4CN(C(=O)CC#N)CC[C@H]4C)ncnc32)cc1C (stereo partly drawn) [I-14, 10-(1,3-bis(palmitoyloxy)propan-2-yl) 1-(4-(((4-(((3R,4R)-1-(2-cyanoacetyl)-4-methylpiperidin-3-yl)(methyl)amino)-7H-pyrrolo[2,3-d]pyrimidine-7-carbonyl)oxy)methyl)-2,6-dimethylphenyl) 8-methyldecanedioate]	B (lymphatic transport assay result between 1% and 10% (1%-10%))	
CCCCCCCCCCCCCCCC(=O)OCC(COC(=O)CCCCCCCCCCCCCCC)OC(=O)CC(C)CCCCCCCC(C)C(=O)Oc1c(C)cc(COC(=O)n2ccc3c(N(C)[C@H]4CN(C(=O)CC#N)CC[C@H]4C)ncnc32)cc1C (stereo partly drawn) [I-15, 12-(1,3-bis(palmitoyloxy)propan-2-yl) 1-(4-(((4-(((3R,4R)-1-(2-cyanoacetyl)-4-methylpiperidin-3-yl)(methyl)amino)-7H-pyrrolo[2,3-d]pyrimidine-7-carbonyl)oxy)methyl)-2,6-dimethylphenyl) 2,10-dimethyldodecanedioate]	A (lymphatic transport assay result of greater than 10% (>10%))	
CCCCCCCCCCCCCCCC(=O)OCC(COC(=O)CCCCCCCCCCCCCCC)OC(=O)CC(C)CCCCCCCCC(=O)Oc1c(C)cc(COC(=O)n2ccc3c(N(C)[C@H]4CN(C(=O)CC#N)CC[C@H]4C)ncnc32)cc1C (stereo partly drawn) [I-16, 1-(1,3-bis(palmitoyloxy)propan-2-yl) 12-(4-(((4-(((3R,4R)-1-(2-cyanoacetyl)-4-methylpiperidin-3-yl)(methyl)amino)-7H-pyrrolo[2,3-d]pyrimidine-7-carbonyl)oxy)methyl)-2,6-dimethylphenyl) 3-methyldodecanedioate]	A (lymphatic transport assay result of greater than 10% (>10%))	
